In article PMC7497403, “Development of Potent PfCLK3 Inhibitors Based on TCMDC-135051 as a New Class of Antimalarials” (Journal of Medicinal Chemistry, 2020):

Columns and labels:
Assay in all cases: Kinase screen
Type in all cases: biochemical
[1] = target: MNK1 (Homo sapiens, UniProt Q9BUB5)
Description: (§1) With verapamil used as a positive control.
(§2) V. Distribution coefficient (LogD7.4)

[2] = target: STK33 (Homo sapiens, UniProt Q9BYT3)
Description: as §1, §2

[3] = target: PKCγ (Homo sapiens, UniProt P05129)
Description: as §1, §2

[4] = target: AMPK (hum) (Homo sapiens, UniProt Q13131)
Sequence of AMPK (hum) (Q13131 whole entry): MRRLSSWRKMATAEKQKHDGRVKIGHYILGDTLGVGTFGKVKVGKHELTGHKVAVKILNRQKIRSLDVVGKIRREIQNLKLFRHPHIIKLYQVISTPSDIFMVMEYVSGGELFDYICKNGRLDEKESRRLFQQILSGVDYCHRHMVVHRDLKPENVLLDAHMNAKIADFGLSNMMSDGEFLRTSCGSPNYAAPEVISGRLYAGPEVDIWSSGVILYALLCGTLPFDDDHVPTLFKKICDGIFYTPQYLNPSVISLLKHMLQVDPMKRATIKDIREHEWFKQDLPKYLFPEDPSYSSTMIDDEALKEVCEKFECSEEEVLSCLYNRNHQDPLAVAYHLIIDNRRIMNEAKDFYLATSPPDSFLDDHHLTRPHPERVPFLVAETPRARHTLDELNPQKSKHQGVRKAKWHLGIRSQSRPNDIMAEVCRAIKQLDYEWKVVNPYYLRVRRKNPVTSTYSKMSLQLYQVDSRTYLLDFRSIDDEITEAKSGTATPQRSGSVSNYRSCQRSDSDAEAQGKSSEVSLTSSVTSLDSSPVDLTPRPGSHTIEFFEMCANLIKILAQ
Sequence of AMPK (hum) (O43741 whole entry partner): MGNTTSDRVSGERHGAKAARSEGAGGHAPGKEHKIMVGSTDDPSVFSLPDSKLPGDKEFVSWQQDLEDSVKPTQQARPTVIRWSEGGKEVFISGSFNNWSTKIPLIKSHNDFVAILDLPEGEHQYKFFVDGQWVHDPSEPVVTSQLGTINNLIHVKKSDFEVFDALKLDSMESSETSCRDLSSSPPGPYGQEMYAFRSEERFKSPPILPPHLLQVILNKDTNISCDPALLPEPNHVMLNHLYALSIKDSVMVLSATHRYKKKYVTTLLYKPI
Sequence of AMPK (hum) (P54619 whole entry partner): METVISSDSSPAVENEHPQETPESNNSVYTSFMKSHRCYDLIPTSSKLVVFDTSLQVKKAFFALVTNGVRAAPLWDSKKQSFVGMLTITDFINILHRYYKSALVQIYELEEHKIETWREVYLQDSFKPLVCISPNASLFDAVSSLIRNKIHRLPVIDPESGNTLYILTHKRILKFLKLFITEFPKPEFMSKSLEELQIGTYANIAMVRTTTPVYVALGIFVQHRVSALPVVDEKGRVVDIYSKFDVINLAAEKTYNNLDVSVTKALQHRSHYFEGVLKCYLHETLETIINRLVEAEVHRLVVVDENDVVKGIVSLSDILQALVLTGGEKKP
Description: as §1, §2

Sequence of MNK1 (Q9BUB5 whole entry): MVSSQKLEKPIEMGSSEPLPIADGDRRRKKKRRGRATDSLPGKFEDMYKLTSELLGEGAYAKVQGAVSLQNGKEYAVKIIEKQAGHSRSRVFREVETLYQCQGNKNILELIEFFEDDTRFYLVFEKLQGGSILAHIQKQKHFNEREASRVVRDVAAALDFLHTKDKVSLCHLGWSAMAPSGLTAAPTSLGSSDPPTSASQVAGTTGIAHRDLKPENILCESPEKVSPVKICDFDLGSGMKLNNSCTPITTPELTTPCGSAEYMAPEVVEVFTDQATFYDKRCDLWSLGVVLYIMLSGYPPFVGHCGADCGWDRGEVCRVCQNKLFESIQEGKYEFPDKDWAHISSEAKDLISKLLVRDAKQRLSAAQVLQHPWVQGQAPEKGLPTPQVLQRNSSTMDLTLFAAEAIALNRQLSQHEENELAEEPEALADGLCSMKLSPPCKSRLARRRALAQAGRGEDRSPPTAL
Sequence of STK33 (Q9BYT3 whole entry): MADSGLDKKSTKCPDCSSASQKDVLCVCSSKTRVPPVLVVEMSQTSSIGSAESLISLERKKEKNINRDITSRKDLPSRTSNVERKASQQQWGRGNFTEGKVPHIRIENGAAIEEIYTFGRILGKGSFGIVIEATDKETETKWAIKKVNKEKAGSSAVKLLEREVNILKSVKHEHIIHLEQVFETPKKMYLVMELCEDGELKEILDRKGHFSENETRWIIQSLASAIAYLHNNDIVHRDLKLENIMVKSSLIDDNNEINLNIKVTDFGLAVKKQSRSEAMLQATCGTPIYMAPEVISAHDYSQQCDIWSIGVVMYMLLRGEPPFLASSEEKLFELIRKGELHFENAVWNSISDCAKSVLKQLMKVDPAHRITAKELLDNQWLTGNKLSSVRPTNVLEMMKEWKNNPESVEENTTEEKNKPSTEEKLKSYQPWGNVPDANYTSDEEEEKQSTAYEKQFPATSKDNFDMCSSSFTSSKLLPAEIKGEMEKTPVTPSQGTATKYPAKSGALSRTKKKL

SMILES: CCN(CC)Cc1ccc(OC)c(-c2cc3c(-c4ccc(C(=O)O)c(C(C)C)c4)ccnc3[nH]2)c1 [analogue 1, 4-(2-(5-((Diethylamino)methyl)-2-methoxyphenyl)-1H-pyrrolo[2,3-b]pyridin-4-yl)-2-isopropylbenzoic Acid]
- activity at 1 µM [1]: 0%
- activity at 1 µM [2]: 44%
- activity at 1 µM [3]: 114%
- activity at 1 µM [4]: 30%
